Laboratory results: ChEMBL document CHEMBL5150018, “Subtilisin-like Serine Protease 1 (SUB1) as an Emerging Antimalarial Drug Target: Current Achievements in Inhibitor Discovery” (J Med Chem, 2022)
*1 amine or outer side, *2 acyl side, *3 side chain or, on linkers, in order; H or OH if unused. Where a SMILES comes first, the peptide text is derived from it. [ ]: non-standard residue; d: D form. The star is where a group is joined. Abu(ψCOCO) = CC[C@H](N[*:1])C(=O)C(=O)[*:2]; X1 = NC(=O)CC[C@H](N[*:1])C(=O)C(=O)[*:2]; X2 = C[C@H](N[*:1])C(=O)C(F)(F)C(=O)[*:2]; Pentanoyl(4-Me) = CC(C)CCC(=O)*; Bn = c1ccc(C*)cc1; CF3 = FC(F)(F)*; NHcPr = C1CC1N*

Legend:
[1] = biological target: T1, Subtilisin-like protease 1 (Plasmodium falciparum, UniProt O61142); experiment: Inhibition of recombinant Plasmodium falciparum SUB1 using SERA4st1F-6R1 as substrate by fluorescence spectrophotometer
T1 sequence (O61142 whole entry): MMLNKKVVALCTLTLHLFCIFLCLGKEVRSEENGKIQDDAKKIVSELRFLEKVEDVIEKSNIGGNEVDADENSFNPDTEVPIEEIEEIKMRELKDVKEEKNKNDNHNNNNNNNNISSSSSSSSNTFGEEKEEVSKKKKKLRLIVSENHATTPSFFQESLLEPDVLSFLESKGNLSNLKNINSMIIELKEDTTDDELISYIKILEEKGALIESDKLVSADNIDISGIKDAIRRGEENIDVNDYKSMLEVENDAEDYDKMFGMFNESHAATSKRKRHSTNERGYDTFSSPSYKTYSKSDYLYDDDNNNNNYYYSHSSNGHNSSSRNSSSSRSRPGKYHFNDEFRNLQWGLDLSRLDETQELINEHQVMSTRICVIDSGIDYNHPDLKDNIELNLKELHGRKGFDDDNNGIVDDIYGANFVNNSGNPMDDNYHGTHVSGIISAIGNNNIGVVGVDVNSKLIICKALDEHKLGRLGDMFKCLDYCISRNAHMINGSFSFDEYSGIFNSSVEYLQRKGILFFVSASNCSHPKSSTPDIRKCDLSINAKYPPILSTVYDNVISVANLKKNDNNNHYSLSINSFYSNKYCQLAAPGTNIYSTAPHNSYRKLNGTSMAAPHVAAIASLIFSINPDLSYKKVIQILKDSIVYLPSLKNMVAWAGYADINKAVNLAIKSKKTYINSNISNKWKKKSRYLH

[2] = biological target: T1, Subtilisin-like protease 1; experiment: Binding affinity to Plasmodium falciparum SUB1 using KLVSADNIDIS peptide as substrate by FRET assay
Plasmodium falciparum [3] = experiment: Antimalarial activity against Plasmodium falciparum Dd2 assessed as inhibition of parasitic growth measured after 48 hrs; assay type: functional, organism-based; details: Dd2, 48 h
Plasmodium falciparum [4] = experiment: Antimalarial activity against Plasmodium falciparum 3D7 assessed as inhibition of parasitic growth measured after 48 hrs; assay type: functional, organism-based; details: 3D7, 48 h
Plasmodium falciparum [5] = experiment: Antimalarial activity against Plasmodium falciparum 3D7 assessed as inhibition of parasite growth incubated for 96 hrs by SYBR Green dye based assay; assay type: functional, organism-based; details: 3D7, 96 h
[6] = biological target: T1, Subtilisin-like protease 1; experiment: Inhibition of Plasmodium falciparum SUB1
[7] = biological target: T1, Subtilisin-like protease 1; experiment: Inhibition of recombinant C-terminal 6-His tagged Plasmodium falciparum SUB1 expressed in baculovirus expression system
[8] = Inhibition of recombinant C-terminal 6-His tagged Plasmodium vivax SUB1 expressed in baculovirus expression system
[9] = biological target: T1, Subtilisin-like protease 1; experiment: Inhibition of Plasmodium falciparum SUB1 in intact schizonts
[10] = Inhibition of recombinant Plasmodium knowlesi SUB1 using SERA4st1F-6R1 as substrate by fluorescence spectrophotometer
[11] = Inhibition of recombinant Plasmodium vivax SUB1 using SERA4st1F-6R1 as substrate by fluorescence spectrophotometer
[12] = Inhibition of Bacillus licheniformis Subtilisin A
[13] = Inhibition of Plasmodium vivax SUB1
Plasmodium falciparum [14] = experiment: Antimalarial activity against synchronized Plasmodium falciparum 3D7 infected in human RBC assessed as inhibition of cell invasion incubated for 4 to 8 hrs by Giemsa staining based microscopic analysis; assay type: functional; details: 3D7, Erythrocyte, time 4-8 hrs, read-out: ED50 (the source's name)
Plasmodium falciparum [15] = experiment: Antimalarial activity against synchronized Plasmodium falciparum 3D7 infected in human RBC assessed as inhibition of parasite growth at schizont stage incubated for 4 to 8 hrs by Giemsa staining based microscopic analysis; assay type: functional; details: 3D7, Erythrocyte, time 4-8 hrs, read-out: ED50 (the source's name)

CC[C@H](C)[C@H](NC(C)=O)C(=O)N[C@H](C(=O)N[C@@H](C)C(=O)N[C@@H](C)C(=O)C(F)(F)F)[C@@H](C)OCc1ccccc1 (Ac-IT(Bn)AA-CF3)
IC50 [1]: > 50 µM

CCc1cccc(NC(=O)c2ccc3c(=O)n4nc(Nc5cc(C)ccc5C)sc4nc3c2)c1
Ki [2]: 30.1 µM | IC50 (Plasmodium falciparum [3]): 22.3 µM | IC50 (Plasmodium falciparum [4]): 17.1 µM

CC(=O)N[C@H](C(=O)N[C@H](C(=O)NCC(=O)N[C@H]1CCOB1O)[C@@H](C)O)C1CCCC1
EC50 (Plasmodium falciparum [5]): 15 µM | IC50 [6]: 4.6 µM

Clc1cc(Nc2nc3ccccc3nc2Nc2ccc(Br)c(Cl)c2)ccc1Br
IC50 [1]: 14 µM

Nc1cc2nc(Nc3ccc(Br)cc3)c(Nc3ccc(Br)cc3)nc2cc1Cl
IC50 [1]: 17 µM

Brc1ccc(Nc2nc3ccccc3nc2Nc2ccc(Br)cc2)cc1
IC50 [1]: 10 µM

CC[C@H](NC(=O)[C@H](C)NC(=O)[C@@H](NC(=O)[C@@H](NC(=O)[C@H](CCCCN)NC(C)=O)[C@@H](C)CC)[C@@H](C)O)C(=O)C(=O)NC1CC1 (Ac-KITA[Abu(ψCOCO)]-NHcPr)
IC50 [7]: 6 µM | IC50 [8]: 12 µM

CC[C@H](C)[C@H](NC(C)=O)C(=O)N[C@H](C(=O)NCC(=O)N[C@@H](C)C(=O)C(F)(F)C(=O)NCC(=O)O)C(C)C (Ac-IVG[X2]G-OH)
IC50 [1]: 0.25 µM

O=C(CCCCCNC(=O)CCCC[C@H]1SC[C@H]2NC(=O)N[C@H]21)NCCCCCC(=O)Nc1ccc2c(Cl)c(OCCc3ccccc3)oc(=O)c2c1
IC50 [9]: 18 µM

CC[C@H](C)[C@H](NC(C)=O)C(=O)N[C@H](C(=O)N[C@@H](C)C(=O)N[C@@H](C)C(=O)C(F)(F)C(=O)NCC(=O)O)[C@@H](C)O (Ac-ITA[X2]G-OH)
IC50 [10]: 0.68 µM | IC50 [11]: 2.2 µM

CC(=O)N[C@H](C(=O)N[C@H](C(=O)NCC(=O)NC(C)C(=O)C(=O)NCCC(=O)O)[C@@H](C)O)C1CCCC1 (stereo not given in full)
IC50 [6]: 0.37 µM

CC(C)[C@H](NC(=O)Cc1ccccc1)C(=O)NCC(=O)N[C@@H](C)C(=O)C(F)(F)C(=O)NCC(=O)O
IC50 [1]: 1 µM

CC1(C)CC[C@]2(C(=O)O)CC[C@]3(C)C(=CC[C@@H]4[C@@]5(C)C[C@@H](O)[C@H](O)C(C)(C)[C@@H]5CC[C@]43C)[C@@H]2C1 [MASLINIC ACID]
IC50 [12]: 59.3 µM

CC(=O)N[C@H](C(=O)N[C@@H](C)C(=O)NCC(=O)N[C@@H](C)B(O)O)C1CCCC1
EC50 (Plasmodium falciparum [5]): 0.34 µM | IC50 [6]: 7.8 µM

CC[C@H](C)[C@H](NC(C)=O)C(=O)N[C@H](C(=O)N[C@@H](C)C(=O)N[C@@H](C)C(=O)C(F)(F)C(=O)O)[C@@H](C)O
IC50 [1]: > 50 µM

COc1cc(Cl)c(C)cc1NC(=O)Cn1c(=O)n(CC(=O)NC2CCCC2)c(=O)c2ccccc21
Ki [2]: 30 µM | IC50 (Plasmodium falciparum [3]): > 50 µM | IC50 (Plasmodium falciparum [4]): > 50 µM

CC(=O)N[C@H](C(=O)N[C@H](C(=O)NCC(=O)N[C@@H](C)B(O)O)C(C)C)C1CCCC1
EC50 (Plasmodium falciparum [5]): 0.26 µM | IC50 [6]: 5.7 µM

CC[C@H](C)[C@H](NC(=O)[C@H](CCCCN)NC(=O)CCC(C)C)C(=O)N[C@H](C(=O)N[C@@H](C)C(=O)N[C@@H](CCC(N)=O)C(=O)C(=O)N[C@@H](CC(=O)O)C(=O)N[C@@H](CC(=O)O)C(=O)N[C@@H](CCC(N)=O)C(=O)N[C@@H](CCC(N)=O)C(N)=O)[C@@H](C)O ({Pentanoyl(4-Me)}-KITA[X1]DDQQ-NH2)
IC50 [13]: 10.5 µM | IC50 [6]: 17.8 µM

Oc1ccc(C2Oc3c(c(O)cc4c3C3c5c(O)cc(O)c(O)c5OC(c5ccc(O)c(O)c5)(O4)C3O)CC2O)cc1O (stereo not given)
EC50 (Plasmodium falciparum [14]): 25 µM | EC50 (Plasmodium falciparum [15]): 108 µM

CC[C@H](C)[C@H](NC(C)=O)C(=O)N[C@H](C(=O)NCC(=O)N[C@@H](C)B(O)O)[C@@H](C)O
EC50 (Plasmodium falciparum [5]): 1.8 µM | IC50 [6]: 0.069 µM

CSc1ccc(CCNC(=O)Cn2ncc3c([nH]c4ccccc43)c2=O)cc1
Ki [2]: 14.7 µM | IC50 (Plasmodium falciparum [3]): > 50 µM | IC50 (Plasmodium falciparum [4]): > 50 µM

O=C(Nc1ccc(-c2nc3cc(NC(=O)c4ccccc4)ccc3[nH]2)cc1)c1ccccc1
Ki [2]: 7.6 µM | IC50 (Plasmodium falciparum [3]): 3.3 µM | IC50 (Plasmodium falciparum [4]): 1.1 µM

COc1ccc(Nc2cc(C)c3cc(NC(=O)c4cc5ccccc5[nH]4)ccc3n2)cc1
IC50 (Plasmodium falciparum [3]): 0.45 µM | IC50 (Plasmodium falciparum [4]): 0.37 µM

CS(=O)(=O)Nc1cc2nc(Nc3ccc(Br)cc3)c(Nc3ccc(Br)cc3)nc2cc1Cl
IC50 [1]: 11 µM

CC(=O)N[C@H](C(=O)N[C@H](C(=O)NCC(=O)N[C@@H](C)B(O)O)[C@@H](C)O)C1CCCC1
EC50 (Plasmodium falciparum [5]): 2.3 µM | IC50 [6]: 9.3 µM

CC[C@H](C)[C@H](NC(=O)[C@H](CCCCN)NC(C)=O)C(=O)N[C@H](C(=O)N[C@@H](C)C(=O)N[C@@H](C)C(=O)C(F)(F)C(=O)NCC(=O)O)[C@@H](C)O (Ac-KITA[X2]G-OH)
IC50 [10]: 1.12 µM | IC50 [11]: 2.5 µM
